In this test the target is SARS2 protease (Severe acute respiratory syndrome coronavirus 2, UniProt P0DTD1). Nature of the test: SARS-CoV-2 protease inhibition assay (SARS2 FRET protease assay). Particulars: SARS-CoV-2 protease 25 nM, FRET, peptide substrate 1.3 μM, 30 minutes at 30° C., compounds 20 μM to 1.0 nM; read-out: IC50. Type of test: biochemical.

Regarding `CCCCCCCOC(=O)N[C@@H](CC1CCCCC1)C(=O)N[C@@H](CCC(=O)N1CCOc2ccccc2C1)C(O)P(=O)(OCC)OCC` (stereo partly drawn) [Compound C14, Heptyl ((2S)-3-cyclohexyl-1-(((2S)-1-(diethoxyphosphoryl)-5-(2,3-dihydrobenzo[f][1,4]oxazepin-4(5H)-yl)-1-hydroxy-5-oxopentan-2-yl)amino)-1-oxopropan-2-yl)carbamate], the IC50 is over 200000 nM.
In the case of `CC(=O)N1CCC2(CC1)CC(CC(C=O)NC(=O)[C@H](CC(C)C)NC(=O)OCC(C)(C)c1cccc(Cl)c1)C(=O)N2` (stereo partly drawn) [Compound C70, 2-(3-Chlorophenyl)-2-methylpropyl ((2S)-1-((1-(8-acetyl-2-oxo-1,8-diazaspiro[4.5]decan-3-yl)-3-oxopropan-2-yl)amino)-4-methyl-1-oxopentan-2-yl)carbamate], the IC50 was determined as 100 nM.
In the case of `CC(C)C[C@H](NC(=O)OC1CCCC1Cc1cccc(Cl)c1)C(=O)N[C@H](C=O)C[C@@H]1CCNC1=O` (stereo partly drawn) [Compound C152, 2-(3-chlorobenzyl)cyclopentyl ((S)-4-methyl-1-oxo-1-(((S)-1-oxo-3-((S)-2-oxopyrrolidin-3-yl)propan-2-yl)amino)pentan-2-yl)carbamate], the IC50 was 11.8 nM.
With `CCOC(=O)/C=C/[C@H](C[C@@H]1CCNC1=O)NC(=O)[C@H](CC(C)C)NC(=O)OC(Cc1ccccc1)c1ccccc1` (stereo partly drawn) [Compound C232, Ethyl (4S, E)-4-((2S)-2-(((1,2-diphenylethoxy)carbonyl)amino)-4-methylpentanamido)-5-((S)-2-oxopyrrolidin-3-yl) pent-2-enoate], the IC50 is 15100 nM.
With `CC(C)C[C@H](NC(=O)OC(Cc1ccccc1)c1ccccc1)C(=O)N[C@@H](C[C@@H]1CCNC1=O)C(=O)C(N)=O` (stereo partly drawn) [Compound C100, 1,2-Diphenylethyl ((S)-1-(((S)-4-amino-3,4-dioxo-1-((S)-2-oxopyrrolidin-3-yl)butan-2-yl)amino)-4-methyl-1-oxopentan-2-yl)carbamate], the IC50 is 1000 nM.
Regarding `CC(C)C[C@H](NC(=O)OC(c1ccccc1)C(C)(C)c1cccc(Cl)c1)C(=O)N[C@@H](CC1CC(C)(C)NC1=O)C(=O)C(=O)NC1CC1` (stereo partly drawn) [Compound C163, 2-(3-Chlorophenyl)-2-methyl-1-phenylpropyl ((2S)-1-((4-(cyclopropylamino)-1-(5,5-dimethyl-2-oxopyrrolidin-3-yl)-3,4-dioxobutan-2-yl)amino)-4-methyl-1-oxopentan-2-yl) carbamate], the IC50 came to 1810 nM.
Regarding `CC(C)(c1cccc(Cl)c1)C(OC(=O)N[C@@H](CC1CCCCC1)C(=O)N[C@@H](C[C@@H]1CCNC1=O)C(=O)C(N)=O)c1ccc2ccccc2c1` (stereo partly drawn) [Compound C122, 2-(3-Chlorophenyl)-2-methyl-1-(naphthalen-2-yl)propyl ((S)-1-(((S)-4-amino-3,4-dioxo-1-((S)-2-oxopyrrolidin-3-yl)butan-2-yl)amino)-3-cyclohexyl-1-oxopropan-2-yl)carbamate], the IC50 was 456 nM.
For `CC(C)C[C@H](NC(=O)OC(c1ccccc1)C(C)(C)c1cccc(Cl)c1)C(=O)NC(CC1CC(C)(C)NC1=O)C(=O)C(N)=O` (stereo partly drawn) [Compound C218, 2-(3-Chlorophenyl)-2-methyl-1-phenylpropyl ((2S)-1-((4-amino-1-(5,5-dimethyl-2-oxopyrrolidin-3-yl)-3,4-dioxobutan-2-yl)amino)-4-methyl-1-oxopentan-2-yl)carbamate], the IC50 was 1850 nM.
Regarding `CC(C)C[C@H](NC(=O)OC1CCN(C(=O)OC(C)(C)C)c2ccccc21)C(=O)N[C@@H](C[C@@H]1CCNC1=O)C(O)S(=O)(=O)O` (stereo partly drawn) [Compound C58, (2S)-2-((2S)-2-((((1-(tert-butoxycarbonyl)-1,2,3,4-tetrahydroquinolin-4-yl)oxy)carbonyl)amino)-4-methylpentanamido)-1-hydroxy-3-((S)-2-oxopyrrolidin-3-yl) propane-1-sulfonate], the IC50 worked out at 100 nM.
Then `COc1cccc2[nH]c(C(=O)N[C@@H](CC(C)C)C(=O)NC(CC3CC4(CCCCC4)NC3=O)C(=O)CO)cc12` (stereo partly drawn) [Compound C233, N-((2S)-1-((4-hydroxy-3-oxo-1-(2-oxo-1-azaspiro[4.5]decan-3-yl)butan-2-yl)amino)-4-methyl-1-oxopentan-2-yl)-4-methoxy-1H-indole-2-carboxamide], with 20 nM.
For the compound `CC(C)C[C@H](NC(=O)OC1(Cc2cccc(Cl)c2)CCC1)C(=O)N[C@@H](CC1CC2(CCOCC2)NC1=O)C(=O)C(=O)NC1CC1` (stereo partly drawn) [Compound C169, 1-(3-chlorobenzyl)cyclobutyl ((2S)-1-((4-(cyclopropylamino)-3,4-dioxo-1-(2-oxo-8-oxa-1-azaspiro[4.5]decan-3-yl)butan-2-yl)amino)-4-methyl-1-oxopentan-2-yl)carbamate], the IC50 is 5990 nM.
With `CC(C)C(=O)N1CCC2(CC1)CC(CC(NC(=O)[C@H](CC1CCCCC1)NC(=O)c1cc3ccccc3[nH]1)C(=O)C(N)=O)C(=O)N2` (stereo partly drawn) [Compound C138, N-((2S)-1-((4-amino-1-(8-isobutyryl-2-oxo-1,8-diazaspiro[4.5]decan-3-yl)-3,4-dioxobutan-2-yl)amino)-3-cyclohexyl-1-oxopropan-2-yl)-1H-indole-2-carboxamide], the IC50 worked out at 245 nM.
Then `CC(C)(COC(=O)N[C@H](C(=O)N[C@@H](C[C@@H]1CCNC1=O)C(O)S(=O)(=O)O)C(C)(C)C)c1cccc(Cl)c1` (stereo partly drawn) [Compound C111, Sodium (2S)-2-((S)-2-(((2-(3-chlorophenyl)-2-methylpropoxy)carbonyl)amino)-3,3-dimethylbutanamido)-1-hydroxy-3-((S)-2-oxopyrrolidin-3-yl)propane-1-sulfonate], with 491 nM; and `CCCC1CCC(OC(=O)NC(CC(C)C)C(=O)NC(CC2CC3(CCN(C(C)=O)CC3)NC2=O)C(O)P(=O)(OCC)OCC)CC1` (stereo in doubt) [Compound C91, 4-Propylcyclohexyl ((2R)-1-((3-(8-acetyl-2-oxo-1,8-diazaspiro[4.5]decan-3-yl)-1-(diethoxyphosphoryl)-1-hydroxypropan-2-yl)amino)-4-methyl-1-oxopentan-2-yl)carbamate], with over 20000 nM.
As for `CS(=O)(=O)N1CCC2(CC1)CC(CC(NC(=O)[C@H](CC1CCCCC1)NC(=O)OC1CCCC1Cc1cccc(Cl)c1)C(=O)C(=O)NC1CC1)C(=O)N2` (stereo partly drawn) [Compound C177, 2-(3-chlorobenzyl)cyclopentyl ((2S)-3-cyclohexyl-1-((4-(cyclopropylamino)-1-(8-(methylsulfonyl)-2-oxo-1,8-diazaspiro[4.5]decan-3-yl)-3,4-dioxobutan-2-yl)amino)-1-oxopropan-2-yl)carbamate], the IC50 is 4390 nM.
On to `CN(C(=O)CC[C@@H](C=O)NC(=O)[C@H](CC1CCCCC1)NC(=O)OCc1cccc(Cl)c1)C1(Cc2ccccc2)CC1` [Compound C17, 3-Chlorobenzyl ((S)-1-(((S)-5-((1-benzylcyclopropyl)(methyl)amino)-1,5-dioxopentan-2-yl)amino)-3-cyclohexyl-1-oxopropan-2-yl)carbamate], for which the IC50 amounted to 2700 nM.
As for `COc1cccc2[nH]c(C(=O)N[C@@H](CC3CCCCC3)C(=O)NC(CC3CC4(CCN(C(C)=O)CC4)NC3=O)C(=O)C(N)=O)cc12` (stereo partly drawn) [Compound C117, N-((2S)-1-((1-(8-Acetyl-2-oxo-1,8-diazaspiro[4.5]decan-3-yl)-4-amino-3,4-dioxobutan-2-yl)amino)-3-cyclohexyl-1-oxopropan-2-yl)-4-methoxy-1H-indole-2-carboxamide], the IC50 came out at 55.3 nM.

Source of the values: US20230159453A1 (COCRYSTAL PHARMA, INC., priority 2020, published 2023).
